Reference: the supplement of paper PMC10307832

What was measured:
Test in all cases: relative viability (nuclei count vs DMSO), 5 days (fraction); higher = more cells survive
[1] = compound: CC(C)CCN1c2nc(Nc3cc(F)c(O)c(F)c3)ncc2N(C)C(=O)C1C [BI-D1870] + C[C@@H](Oc1cc(-c2cnn(C3CCNCC3)c2)cnc1N)c1c(Cl)ccc(F)c1Cl [Crizotinib] (partner 1 µM)
How it was run: (§1)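 Medians of duplicate plates are given as relative viability. That measure is the nuclei count in treated wells divided by the count in vehicle wells. Counts were taken on 4× images of lung cancer cell lines in 1536-well plates, 5 days after pin-tool dosing the day after seeding with one drug alone or a fixed anchor-drug dose plus five library-drug doses (not always all listed) in √10 steps.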

[2] = compound: O=c1ncccn1[C@@H]1O[C@H](CO)[C@@H](O)[C@H]1O [Zebularine] + O=C(CCCCCCC(=O)Nc1ccccc1)NO [Vorinostat] (partner 1 µM)
How it was run: as §1

[3] = compound: O=c1ncccn1[C@@H]1O[C@H](CO)[C@@H](O)[C@H]1O [Zebularine] + CC(=O)c1c(C)c2cnc(Nc3ccc(N4CCNCC4)cn3)nc2n(C2CCCC2)c1=O [Palbociclib] (partner 0.5 µM)
How it was run: as §1

[4] = compound: O=c1ncccn1[C@@H]1O[C@H](CO)[C@@H](O)[C@H]1O [Zebularine] + CC(=O)Nc1cccc(-n2c(=O)n(C3CC3)c(=O)c3c(Nc4ccc(I)cc4F)n(C)c(=O)c(C)c32)c1 [Trametinib] (partner 0.02 µM)
How it was run: as §1

UMC-11
relative viability ([1]; first compound 0.04 µM): 0.477
relative viability ([1]; first compound 0.1265 µM): 0.585
relative viability ([1]; first compound 0.4 µM): 0.533
relative viability ([1]; first compound 1.265 µM): 0.694
relative viability ([1]; first compound 4 µM): 0.172
relative viability ([2]; first compound 1 µM): 0.388
relative viability ([2]; first compound 3.162 µM): 0.359
relative viability ([2]; first compound 10 µM): 0.335
relative viability ([2]; first compound 31.62 µM): 0.331
relative viability ([2]; first compound 100 µM): 0.279
relative viability ([3]; first compound 1 µM): 0.329
relative viability ([3]; first compound 3.162 µM): 0.315
relative viability ([3]; first compound 10 µM): 0.312
relative viability ([3]; first compound 31.62 µM): 0.344
relative viability ([3]; first compound 100 µM): 0.308
relative viability ([4]; first compound 1 µM): 0.709
relative viability ([4]; first compound 3.162 µM): 0.754
relative viability ([4]; first compound 10 µM): 0.422
relative viability ([4]; first compound 31.62 µM): 0.644
relative viability ([4]; first compound 100 µM): 0.376
